According to patent publication US9346852B2, “Substituted adipic acid amides and uses thereof” (Bristol-Myers Scuibb Company, priority 2011, dated 2016):

Molecular target: T1, human Y4 stable CHO clonal cells (Homo sapiens, UniProt P50391)
T1 construct: expressed in transfected cells
Assay: NPY4 cAMP HTRF Agonist Assay
Assay type: cell-based
Details: inhibitory cAMP assay, Gi activation by Y4 agonism, forskolin and IBMX, 30 minutes at room temperature
Procedure: NPY4 cAMP HTRF Agonist Assay
The functionality of the compound at Y4 receptor was analyzed using an inhibitory cAMP assay (CISBIO, HTRF cAMP kit #62AM4PEC) to measure the Gi activation by Y4 agonism.
The human Y4 stable CHO clonal cells were maintained in culture medium (F-12 containing 10% Fetal Bovine Serum, […] GENETICIN®, […] Zeocin). Before the experiment, 5 μL of 1 uM Forskolin (Sigma, # F6886) and 100 uM IBMX (Sigma, # I5879) in PBS buffer were added into 384-well plates (PE, Proxi-plate) that were pre-dotted with […] compounds. The cells were removed from the flasks by Cellstripper, counted and adjusted to […] in PBS buffer, and added 5 μL/well (5000 cells/well) into the above 384-well plates. The cells were then covered and incubated for 30 minutes at room temperature. After incubation, 5 μL/well of D2-conjugate in HTRF lysis buffer was first added, followed by adding 5 μL/well of anti-cAMP Cryptate in HTRF lysis buffer. The plates were incubated for another 1 hour at room temperature and read on the EnVision Multilabel Plate Reader.
Compounds described herein were tested in the above assay.

T1 sequence (P50391 whole entry): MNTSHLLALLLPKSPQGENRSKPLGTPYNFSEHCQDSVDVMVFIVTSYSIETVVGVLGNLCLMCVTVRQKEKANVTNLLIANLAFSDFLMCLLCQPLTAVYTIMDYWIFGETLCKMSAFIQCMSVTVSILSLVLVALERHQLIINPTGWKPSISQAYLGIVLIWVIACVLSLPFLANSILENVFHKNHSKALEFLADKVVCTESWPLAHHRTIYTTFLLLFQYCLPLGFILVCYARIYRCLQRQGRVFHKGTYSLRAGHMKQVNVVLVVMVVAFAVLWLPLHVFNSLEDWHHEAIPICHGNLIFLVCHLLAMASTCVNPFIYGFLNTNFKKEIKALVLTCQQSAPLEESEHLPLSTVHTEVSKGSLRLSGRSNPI

EC50	Compound
270 nM	Cc1ccccc1N1CCCC[C@H](NC(=O)[C@H](CC[C@H](Cc2ccccc2)C(=O)N[C@H]2CCS[C@H]3CC[C@@H](C(F)(F)F)CN3C2=O)Cc2ccccc2)C1=O [Example 90, (2R,5R)-2,5-Dibenzyl-N1-((S)-2-oxo-1-o-tolylazepan-3-yl)-N6-((4S,8R,10aS)-5-oxo-8-(trifluoromethyl)octahydro-2H-pyrido[2,1-b][1,3]thiazepin-4-yl)hexanediamide]
7 nM	COc1ccccc1N1CCCC[C@H](NC(=O)[C@H](CC[C@H](Cc2ccccc2)C(=O)N[C@H]2CCS[C@H]3CCC[C@@H](C#N)N3C2=O)Cc2ccccc2)C1=O [Example 96, (2R,5R)-2,5-Dibenzyl-N1-((4S,7S,10aS)-7-cyano-5-oxooctahydro-2H-pyrido[2,1-b][1,3]thiazepin-4-yl)-N6-((S)-1-(2-methoxyphenyl)-2-oxoazepan-3-yl)hexanediamide]
155 nM	COC(=O)[C@@H]1CCCN2CCC[C@H](NC(=O)[C@H](CC[C@H](Cc3ccccc3)C(=O)N[C@H]3CCCN4CCC[C@@H](C(=O)OC)N4C3=O)Cc3ccccc3)C(=O)N12 [Example 18, Dimethyl (1S,9S,1′S,9′S)-9,9′-(((2R,5R)-2,5-dibenzyl-1,6-dioxo-1,6-hexanediyl)diimino)bis(10-oxooctahydro-6H-pyridazino[1,2-a][1,2]diazepine-1-carboxylate)]
470 nM	COC[C@@H]1CCC[C@@H]2SCC[C@H](NC(=O)[C@H](CC[C@H](Cc3ccccc3)C(=O)N[C@H]3CCCCN(c4ccccc4)C3=O)Cc3ccccc3)C(=O)N12 [Example 74, (2R,5R)-2,5-Dibenzyl-N1-((4S,7S,10aS)-7-(methoxymethyl)-5-oxooctahydro-2H-pyrido[2,1-b][1,3]thiazepin-4-yl)-N6-((S)-2-oxo-1-phenylazepan-3-yl)hexanediamide]
130 nM	COC(=O)[C@@H]1CCC[C@@H]2SCC[C@H](NC(=O)[C@H](CC[C@H](CC(C)C)C(=O)N[C@H]3CCS[C@H]4CCC[C@@H](C(=O)OC)N4C3=O)Cc3ccccc3)C(=O)N21 [Example 4]
230 nM	COC(=O)[C@@H]1CCC[C@@H]2SCC[C@H](NC(=O)[C@H](CC[C@H](Cc3ccccc3)C(=O)N[C@H]3CCS[C@H]4CCCCN4C3=O)Cc3ccccc3)C(=O)N21 [Example 30, (4S,7S,10aS)-Methyl 4-((2R,5R)-2,5-dibenzyl-6-oxo-6-((4S,10aS)-5-oxooctahydro-2H-pyrido[2,1-b][1,3]thiazepin-4-ylamino)hexanamido)-5-oxooctahydro-2H-pyrido[2,1-b][1,3]thiazepine-7-carboxylate]
55 nM	N#C[C@@H]1CCC[C@@H]2SCC[C@H](NC(=O)[C@H](CC[C@H](Cc3ccccc3)C(=O)N[C@H]3CCCCN(c4ccccc4)C3=O)Cc3ccccc3)C(=O)N12 [Example 72, (2R,5R)-2,5-Dibenzyl-N1-((4S,7S,10aS)-7-cyano-5-oxooctahydro-2H-pyrido[2,1-b][1,3]thiazepin-4-yl)-N6-((S)-2-oxo-1-phenylazepan-3-yl)hexanediamide]
60 nM	COC(=O)[C@@H]1CCC[C@@H]2SCC[C@H](NC(=O)[C@H](CC[C@H](Cc3ccccc3)C(=O)N[C@@H]3C(=O)N4CCC[C@@H]4SC3(C)C)Cc3ccccc3)C(=O)N21 [Example 12, (4S,7S,10aS)-Methyl 4-((2R,5R)-2,5-dibenzyl-6-((3R,8aS)-2,2-dimethyl-4-oxohexahydro-2H-pyrrolo[2,1-b][1,3]thiazin-3-ylamino)-6-oxohexanamido)-5-oxooctahydro-2H-pyrido[2,1-b][1,3]thiazepine-7-carboxylate]
835 nM	COC(=O)[C@@H]1CCC[C@@H]2SCC[C@H](NC(=O)[C@H](CC[C@H](CC3CCCCC3)C(=O)N[C@H]3CCS[C@H]4CCC[C@@H](C(=O)OC)N4C3=O)Cc3cccc(Cl)c3)C(=O)N21 [Example 43, Dimethyl (4S,7S,10aS,4′S,7′S,10a′S)-4,4′-(((2R,5R)-2-(3-chlorobenzyl)-5-(cyclohexylmethyl)-1,6-dioxo-1,6-hexanediyl)diimino)bis(5-oxooctahydro-7H-pyrido[2,1-b][1,3]thiazepine-7-carboxylate)]
18 nM	COc1ccccc1N1CCCC[C@H](NC(=O)[C@H](CC[C@H](Cc2ccccc2)C(=O)N[C@H]2CCS[C@H]3CCC[C@@H](C(F)(F)F)N3C2=O)Cc2ccccc2)C1=O [Example 79, (2R,5R)-2,5-Dibenzyl-N1-((S)-1-(2-methoxyphenyl)-2-oxoazepan-3-yl)-N6-((4S,7S,10aS)-5-oxo-7-(trifluoromethyl)octahydro-2H-pyrido[2,1-b][1,3]thiazepin-4-yl)hexanediamide]
200 nM	COC(=O)[C@@H]1CCC[C@@H]2CCC[C@H](NC(=O)[C@H](CC[C@H](Cc3ccccc3)C(=O)N[C@H]3CCC[C@H]4CCC[C@@H](C(=O)OC)N4C3=O)Cc3ccccc3)C(=O)N21 [Example 5, Dimethyl (4S,7S,10aS,4′S,7′S,10a′S)-7,7′-(((2R,5R)-2,5-dibenzyl-1,6-dioxo-1,6-hexanediyl)diimino)bis(6-oxodecahydropyrido[1,2-a]azepine-4-carboxylate)]
210 nM	CCC[C@@H](CC[C@H](Cc1cccc(F)c1)C(=O)N[C@H]1CCS[C@H]2CCC[C@@H](C(=O)OC)N2C1=O)C(=O)N[C@H]1CCS[C@H]2CCC[C@@H](C(=O)OC)N2C1=O [Example 100]
24 nM	COC(=O)[C@@H]1CCC[C@@H]2SCC[C@H](NC(=O)[C@H](CC[C@H](CC#N)C(=O)N[C@H]3CCS[C@H]4CCC[C@@H](C(=O)OC)N4C3=O)Cc3ccccc3)C(=O)N21 [Example 32, Dimethyl (4S,7S,10aS,4′S,7′S,10a′S)-4,4′-(((2R,5R)-2-benzyl-5-(cyanomethyl)-1,6-dioxo-1,6-hexanediyl)diimino)bis(5-oxooctahydro-7H-pyrido[2,1-b][1,3]thiazepine-7-carboxylate)]
17 nM	COC(=O)[C@@H]1CCC[C@@H]2SCC[C@H](NC(=O)[C@H](CC[C@H](Cc3ccccc3)C(=O)N[C@H]3CCS[C@H]4CCC[C@@H](C(=O)OC)N4C3=O)Cc3ccccc3)C(=O)N21 [Example 1, Dimethyl (4S,7S,10aS,4′S,7′S,10a′S)-4,4′-(((2R,5R)-2,5-dibenzyl-1,6-dioxo-1,6-hexanediyl)diimino)bis(5-oxooctahydro-7H-pyrido[2,1-b][1,3]thiazepine-7-carboxylate)]
5 nM	COC(=O)[C@@H]1CCC[C@@H]2SCC[C@H](NC(=O)[C@H](CC[C@H](Cc3ccc(O)cc3)C(=O)N[C@H]3CCS[C@H]4CCC[C@@H](C(=O)OC)N4C3=O)Cc3ccccc3)C(=O)N21 [Example 38, Dimethyl (4S,7S,10aS,4′S,7′S,10a′S)-4,4′-(((2R,5R)-2-benzyl-5-(4-hydroxybenzyl)-1,6-dioxo-1,6-hexanediyl)diimino)bis(5-oxooctahydro-7H-pyrido[2,1-b][1,3]thiazepine-7-carboxylate)]
270 nM	O=C(N[C@H]1CCCCN(c2ccccc2)C1=O)[C@H](CC[C@H](Cc1ccccc1)C(=O)N[C@H]1CCS[C@H]2CCCCN2C1=O)Cc1ccccc1 [Example 59, (2R,5R)-2,5-Dibenzyl-N1-((S)-2-oxo-1-phenylazepan-3-yl)-N6-((4S,10aS)-5-oxooctahydro-2H-pyrido[2,1-b][1,3]thiazepin-4-yl)hexanediamide]
14 nM	COC(=O)[C@@H]1CCC[C@@H]2SCC[C@H](NC(=O)[C@H](CC[C@H](Cc3ccc(O)cc3)C(=O)N[C@H]3CCS[C@H]4CCC[C@@H](C(=O)OC)N4C3=O)Cc3ccc(O)cc3)C(=O)N21 [Example 9, Dimethyl (4S,7S,10aS,4′S,7′S,10a′S)-4,4′-(((2R,5R)-2,5-bis(4-hydroxybenzyl)-1,6-dioxo-1,6-hexanediyl)diimino)bis(5-oxooctahydro-7H-pyrido[2,1-b][1,3]thiazepine-7-carboxylate)]
